ChEMBL document CHEMBL4414672, “Synthesis of certain benzothieno[3,2-d]pyrimidine derivatives as a selective SIRT2 inhibitors” (Eur J Med Chem, 2020)

What was measured:
Type in all cases: functional
CCRF-CEM = experiment: Growth inhibition of human CCRF-CEM cells at 10^-5 M incubated for 48 hrs by sulforhodamine B assay; conditions: read-out: GI
HL-60(TB) = experiment: Growth inhibition of human HL-60(TB) cells at 10^-5 M incubated for 48 hrs by sulforhodamine B assay; conditions: HL-60, 48 h, read-out: GI
K562 = experiment: Growth inhibition of human K562 cells at 10^-5 M incubated for 48 hrs by sulforhodamine B assay; conditions: K562, 48 h, read-out: GI
MOLT-4 = experiment: Growth inhibition of human MOLT4 cells at 10^-5 M incubated for 48 hrs by sulforhodamine B assay; conditions: MOLT-4, 48 h, read-out: GI
SR = experiment: Growth inhibition of human SR cells at 10^-5 M incubated for 48 hrs by sulforhodamine B assay; conditions: read-out: GI
A549 = experiment: Growth inhibition of human A549/ATCC cells at 10^-5 M incubated for 48 hrs by sulforhodamine B assay; conditions: A549, 48 h, read-out: GI
EKVX = experiment: Growth inhibition of human EKVX cells at 10^-5 M incubated for 48 hrs by sulforhodamine B assay; conditions: read-out: GI
HOP-62 = experiment: Growth inhibition of human HOP62 cells at 10^-5 M incubated for 48 hrs by sulforhodamine B assay; conditions: HOP-62, 48 h, read-out: GI
HOP-92 = experiment: Growth inhibition of human HOP92 cells at 10^-5 M incubated for 48 hrs by sulforhodamine B assay; conditions: HOP-92, 48 h, read-out: GI
NCI-H226 = experiment: Growth inhibition of human NCI-H226 cells at 10^-5 M incubated for 48 hrs by sulforhodamine B assay; conditions: NCI-H226, 48 h, read-out: GI
NCI-H23 = experiment: Growth inhibition of human NCI-H23 cells at 10^-5 M incubated for 48 hrs by sulforhodamine B assay; conditions: NCI-H23, 48 h, read-out: GI
NCI-H322M = experiment: Growth inhibition of human NCI-H322M cells at 10^-5 M incubated for 48 hrs by sulforhodamine B assay; conditions: read-out: GI
NCI-H522 = experiment: Growth inhibition of human NCI-H522 cells at 10^-5 M incubated for 48 hrs by sulforhodamine B assay; conditions: NCI-H522, 48 h, read-out: GI
HCT-116 = experiment: Growth inhibition of human HCT116 cells at 10^-5 M incubated for 48 hrs by sulforhodamine B assay; conditions: HCT-116, 48 h, read-out: GI
HT-29 = experiment: Growth inhibition of human HT-29 cells at 10^-5 M incubated for 48 hrs by sulforhodamine B assay; conditions: HT-29, 48 h, read-out: GI
KM12 = experiment: Growth inhibition of human KM12 cells at 10^-5 M incubated for 48 hrs by sulforhodamine B assay; conditions: KM12, 48 h, read-out: GI
SW-620 = experiment: Growth inhibition of human SW620 cells at 10^-5 M incubated for 48 hrs by sulforhodamine B assay; conditions: SW-620, 48 h, read-out: GI
SF-268 = experiment: Growth inhibition of human SF268 cells at 10^-5 M incubated for 48 hrs by sulforhodamine B assay; conditions: SF-268, 48 h, read-out: GI
SF-295 = experiment: Growth inhibition of human SF295 cells at 10^-5 M incubated for 48 hrs by sulforhodamine B assay; conditions: SF-295, 48 h, read-out: GI
Malme-3M = experiment: Growth inhibition of human MALME-3M cells at 10^-5 M incubated for 48 hrs by sulforhodamine B assay; conditions: read-out: GI
M14 = experiment: Growth inhibition of human M14 cells at 10^-5 M incubated for 48 hrs by sulforhodamine B assay; conditions: M14, 48 h, read-out: GI
MDA-MB-435 = experiment: Growth inhibition of human MDA-MB-435 cells at 10^-5 M incubated for 48 hrs by sulforhodamine B assay; conditions: MDA-MB-435, 48 h, read-out: GI
SK-MEL-28 = experiment: Growth inhibition of human SK-MEL-28 cells at 10^-5 M incubated for 48 hrs by sulforhodamine B assay; conditions: SK-MEL-28, 48 h, read-out: GI
IGROV-1 = experiment: Growth inhibition of human IGROV1 cells at 10^-5 M incubated for 48 hrs by sulforhodamine B assay; conditions: IGROV-1, 48 h, read-out: GI
OVCAR-3 = experiment: Growth inhibition of human OVCAR3 cells at 10^-5 M incubated for 48 hrs by sulforhodamine B assay; conditions: OVCAR-3, 48 h, read-out: GI
OVCAR-4 = experiment: Growth inhibition of human OVCAR4 cells at 10^-5 M incubated for 48 hrs by sulforhodamine B assay; conditions: OVCAR-4, 48 h, read-out: GI
OVCAR-8 = experiment: Growth inhibition of human OVCAR8 cells at 10^-5 M incubated for 48 hrs by sulforhodamine B assay; conditions: OVCAR-8, 48 h, read-out: GI
A498 = experiment: Growth inhibition of human A498 cells at 10^-5 M incubated for 48 hrs by sulforhodamine B assay; conditions: A498, 48 h, read-out: GI
ACHN = experiment: Growth inhibition of human ACHN cells at 10^-5 M incubated for 48 hrs by sulforhodamine B assay; conditions: read-out: GI
CAKI-1 = experiment: Growth inhibition of human Caki1 cells at 10^-5 M incubated for 48 hrs by sulforhodamine B assay; conditions: CAKI-1, 48 h, read-out: GI
TK-10 = experiment: Growth inhibition of human TK10 cells at 10^-5 M incubated for 48 hrs by sulforhodamine B assay; conditions: TK-10, 48 h, read-out: GI
UO-31 = experiment: Growth inhibition of human UO31 cells at 10^-5 M incubated for 48 hrs by sulforhodamine B assay; conditions: UO-31, 48 h, read-out: GI
DU-145 = experiment: Growth inhibition of human DU145 cells at 10^-5 M incubated for 48 hrs by sulforhodamine B assay; conditions: DU-145, 48 h, read-out: GI
MCF7 = experiment: Growth inhibition of human MCF7 cells at 10^-5 M incubated for 48 hrs by sulforhodamine B assay; conditions: MCF7, 48 h, read-out: GI
MDA-MB-231 = experiment: Growth inhibition of human MDA-MB-231 cells at 10^-5 M incubated for 48 hrs by sulforhodamine B assay; conditions: MDA-MB-231, 48 h, read-out: GI
Hs-578T = experiment: Growth inhibition of human Hs 578T cells at 10^-5 M incubated for 48 hrs by sulforhodamine B assay; conditions: read-out: GI
BT-549 = experiment: Growth inhibition of human BT549 cells at 10^-5 M incubated for 48 hrs by sulforhodamine B assay; conditions: BT-549, 48 h, read-out: GI
T47D = experiment: Growth inhibition of human T47D cells at 10^-5 M incubated for 48 hrs by sulforhodamine B assay; conditions: read-out: GI
MDA-MB-468 = experiment: Growth inhibition of human MDA-MB-468 cells at 10^-5 M incubated for 48 hrs by sulforhodamine B assay; conditions: MDA-MB-468, 48 h, read-out: GI

`Oc1ccccc1C1NC(=S)Nc2c1sc1ccc(Cl)cc21` (stereo not drawn) showed an inhibition of growth at 10 µM (CCRF-CEM) of -4.86%, an inhibition of growth at 10 µM (HL-60(TB)) of -4.7% and an inhibition of growth at 10 µM (K562) of 8.3%. It also gave an inhibition of growth at 10 µM (MOLT-4) of 9.69%, an inhibition of growth at 10 µM (SR) of 16.3% and an inhibition of growth at 10 µM (A549) of 5.42%. For the same compound, the inhibition of growth at 10 µM (EKVX) was 19.7%, the inhibition of growth at 10 µM (HOP-62) was 5.51% and the inhibition of growth at 10 µM (HOP-92) was 13.4%. For the same compound, the inhibition of growth at 10 µM (NCI-H226) was 21.8%, the inhibition of growth at 10 µM (NCI-H23) was 19.4% and the inhibition of growth at 10 µM (NCI-H322M) was 5.31%. It also gave an inhibition of growth at 10 µM (NCI-H522) of 7.8%, an inhibition of growth at 10 µM (HCT-116) of 8.97% and an inhibition of growth at 10 µM (HT-29) of -1.54%. For the same compound, the inhibition of growth at 10 µM (KM12) was 1.3%, the inhibition of growth at 10 µM (SW-620) was -8% and the inhibition of growth at 10 µM (SF-268) was 8.44%. It also gave an inhibition of growth at 10 µM (SF-295) of -0.95%, an inhibition of growth at 10 µM (Malme-3M) of 10.7% and an inhibition of growth at 10 µM (M14) of 7.43%. The inhibition of growth at 10 µM (MDA-MB-435) was -10.2%, the inhibition of growth at 10 µM (SK-MEL-28) was -6.12% and the inhibition of growth at 10 µM (IGROV-1) was 13.6%. It also gave an inhibition of growth at 10 µM (OVCAR-3) of 4.13%, an inhibition of growth at 10 µM (OVCAR-4) of 7.52% and an inhibition of growth at 10 µM (OVCAR-8) of 5.15%. For the same compound, the inhibition of growth at 10 µM (A498) was 23.4%, the inhibition of growth at 10 µM (ACHN) was 8.93% and the inhibition of growth at 10 µM (CAKI-1) was 12.9%. For the same compound, the inhibition of growth at 10 µM (TK-10) was -8.34%, the inhibition of growth at 10 µM (UO-31) was -8.34% and the inhibition of growth at 10 µM (DU-145) was -7.9%. It also gave an inhibition of growth at 10 µM (MCF7) of -7.9%, an inhibition of growth at 10 µM (MDA-MB-231) of 27.4% and an inhibition of growth at 10 µM (Hs-578T) of 8.15%. For the same compound, the inhibition of growth at 10 µM (BT-549) was -5%, the inhibition of growth at 10 µM (T47D) was 24.8% and the inhibition of growth at 10 µM (MDA-MB-468) was 8.75%.

Work on `NC(=O)CSC1=Nc2c(sc3ccc(Cl)cc23)C(c2cccc([N+](=O)[O-])c2)N1` (stereo not drawn) yielded an inhibition of growth at 10 µM (CCRF-CEM) of -22%, an inhibition of growth at 10 µM (HL-60(TB)) of -2.94% and an inhibition of growth at 10 µM (K562) of 2.53%. For the same compound, the inhibition of growth at 10 µM (MOLT-4) was 3.86%, the inhibition of growth at 10 µM (SR) was 4.41% and the inhibition of growth at 10 µM (A549) was -4.42%. For the same compound, the inhibition of growth at 10 µM (EKVX) was 23.6%, the inhibition of growth at 10 µM (HOP-62) was 6.5% and the inhibition of growth at 10 µM (HOP-92) was -21.6%. For the same compound, the inhibition of growth at 10 µM (NCI-H226) was 10.4%, the inhibition of growth at 10 µM (NCI-H23) was 4.2% and the inhibition of growth at 10 µM (NCI-H322M) was 3.97%. The inhibition of growth at 10 µM (NCI-H522) was 6.5%, the inhibition of growth at 10 µM (HCT-116) was 6.66% and the inhibition of growth at 10 µM (HT-29) was -3.66%. For the same compound, the inhibition of growth at 10 µM (KM12) was -8.1%, the inhibition of growth at 10 µM (SW-620) was -4.82% and the inhibition of growth at 10 µM (SF-268) was -4.2%. For the same compound, the inhibition of growth at 10 µM (SF-295) was -2.8%, the inhibition of growth at 10 µM (Malme-3M) was 3.6% and the inhibition of growth at 10 µM (M14) was -2.31%. The inhibition of growth at 10 µM (MDA-MB-435) was -11.3%, the inhibition of growth at 10 µM (SK-MEL-28) was -21.2% and the inhibition of growth at 10 µM (IGROV-1) was 22%. For the same compound, the inhibition of growth at 10 µM (OVCAR-3) was -4.8%, the inhibition of growth at 10 µM (OVCAR-4) was -4.84% and the inhibition of growth at 10 µM (OVCAR-8) was -3.56%. It also gave an inhibition of growth at 10 µM (A498) of 20.2%, an inhibition of growth at 10 µM (ACHN) of 8.24% and an inhibition of growth at 10 µM (CAKI-1) of 19.2%. For the same compound, the inhibition of growth at 10 µM (TK-10) was -16.6%, the inhibition of growth at 10 µM (UO-31) was 34.3% and the inhibition of growth at 10 µM (DU-145) was -14.8%. The inhibition of growth at 10 µM (MCF7) was 22.4%, the inhibition of growth at 10 µM (MDA-MB-231) was 7.36% and the inhibition of growth at 10 µM (Hs-578T) was 1.5%. For the same compound, the inhibition of growth at 10 µM (BT-549) was -8.76%, the inhibition of growth at 10 µM (T47D) was 23.9% and the inhibition of growth at 10 µM (MDA-MB-468) was 2.9%.
